Assays:
[1] = Aqueous solubility of the compound at pH 7.8; type: physicochemical
Mus musculus [2] = assay: Analgesic activity in acetic acid induced ICR mouse assessed as average writhing times at 50 mg/kg, iv administered for 15 mins followed by acetic acid injection and measured within 15 mins (reference value: 26.1 +/- 16.3); type: functional; details: time 30 min, 0.5 h
Mus musculus [3] = assay: Analgesic activity in acetic acid induced ICR mouse assessed as average writhing times at 25 mg/kg, iv administered for 15 mins followed by acetic acid injection and measured within 15 mins (reference value: 26.1 +/- 16.3); type: functional; details: time 30 min, 0.5 h
Mus musculus [4] = assay: Analgesic activity in acetic acid induced ICR mouse assessed as average writhing times at 3.13 mg/kg, iv administered for 15 mins followed by acetic acid injection and measured within 15 mins (reference value: 26.1 +/- 16.3); type: functional; details: time 30 min, 0.5 h
Mus musculus [5] = assay: Antinociceptive activity in acetic acid induced ICR mouse assessed as inhibition effect at 12.50 mg/kg, iv administered for 15 mins followed by acetic acid injection and measured within 15 mins; type: functional; details: 0.5 h, time 30 min
Rattus norvegicus = species: Rattus norvegicus; assay: Antiinflammatory activity in carrageenan-induced Sprague-Dawley rat assessed as paw withdrawal threshold measured after 2.5 hrs by paw pressure test; type: functional
Mus musculus [6] = assay: Analgesic activity in acetic acid induced ICR mouse assessed as average writhing times at 6.25 mg/kg, iv administered for 15 mins followed by acetic acid injection and measured within 15 mins (reference value: 26.1 +/- 16.3); type: functional; details: time 30 min, 0.5 h
Mus musculus [7] = assay: Analgesic activity in iv dosed ICR mouse assessed as reduction in acetic acid induced writhing administered for 15 mins followed by acetic acid injection and measured within 15 mins; type: functional; details: 0.5 h, time 30 min
Mus musculus [8] = assay: Antinociceptive activity in acetic acid induced ICR mouse assessed as inhibition effect at 50 mg/kg, iv administered for 15 mins followed by acetic acid injection and measured within 15 mins; type: functional; details: 0.5 h, time 30 min
Mus musculus [9] = assay: Analgesic activity in acetic acid induced ICR mouse assessed as average writhing times at 12.50 mg/kg, iv administered for 15 mins followed by acetic acid injection and measured within 15 mins (reference value: 26.1 +/- 16.3); type: functional; details: dose 12.5 mg/kg, time 30 min, 0.5 h
Mus musculus [10] = assay: Antinociceptive activity in acetic acid induced ICR mouse assessed as inhibition effect at 25 mg/kg, iv administered for 15 mins followed by acetic acid injection and measured within 15 mins; type: functional; details: 0.5 h, time 30 min
Mus musculus [11] = assay: Antinociceptive activity in acetic acid induced ICR mouse assessed as inhibition effect at 6.25 mg/kg, iv administered for 15 mins followed by acetic acid injection and measured within 15 mins; type: functional; details: 0.5 h, time 30 min

SMILES: CCC(=O)[N-]S(=O)(=O)c1ccc(-c2c(-c3ccccc3)noc2C)cc1.[Na+] [PARECOXIB SODIUM]
- solubility [1]: 18 mg/mL
- Activity (Mus musculus [2]): 2.4
- Activity (Mus musculus [3]): 10.1
- Activity (Mus musculus [4]): 21
- inhibition in vivo at 12.5 mg/kg (Mus musculus [5]): 47.5%
- ED50 (Rattus norvegicus): 22.7 mg/kg
- Activity (Mus musculus [6]): 22.2
- ED50 (Mus musculus [7]): 15.7 mg/kg
- inhibition in vivo at 50 mg/kg (Mus musculus [8]): 90.8%
- Activity (Mus musculus [9]): 13.7
- inhibition in vivo at 25 mg/kg (Mus musculus [10]): 61.3%
- inhibition in vivo at 6.25 mg/kg (Mus musculus [11]): 14.9%

From ChEMBL document CHEMBL5154819 (Eur J Med Chem, 2022)
